Results on four compounds are retold here after US20120277264A1, “ANTITHROMBOTIC AGENT” (Taiho Pharmaceutical Co., Ltd., priority 2009, published 2012).

The subject of data set [1] is thrombus formation in the arteria testicularis. In words: Thrombus formation inhibition, combined use with cilostazol (FeCl3-induced thrombus, Test Example 3). The class given is in vivo. The conditions noted are these: male ICR mice, control 12±3 minutes, P<0.05 vs. cont. The procedure:
Male ICR mice (ten weeks old) were used. Rhodamine 6G (platelet fluorescence-labeling agent) was administered to the tail vein under anesthesia. With the abdomen open, the arteria testicularis was subjected to FeCl3 treatment to induce thrombus formation. Thrombus formation was observed by a real time color three-dimensional observation device, and thrombus formation time was measured. Suplatast tosilate (IPD) (10 mg/kg) was dissolved in water and orally administered for 7 days before amputating the tail to the group that was given IPD alone. Cilostazol (10 mg/kg, 30 mg/kg, 100 mg/kg), a platelet aggregation inhibitor, was dissolved in water and orally administered in a single dose one hour before amputating the tail to the group that was given cilostazol alone. To the combination group of IPD and cilostazol, IPD (10 mg/kg) was orally administered for 7 days, and cilostazol (10 mg/kg) was orally administered in a single dose one hour before amputating the tail on the 7th day of the IPD administration.

A short description of data set [2]: Amount of bleeding after tail amputation (side effect, Test Example 2). Type of data set: in vivo, mice. The procedure:
Male ICR mice (ten weeks old) were used. The last 2 mm of the tail was amputated with a scalpel under pentobarbital anesthesia, and the tail 2 cm from the tip was immediately immersed in 10 mL of physiological saline at 37° C. Twenty minutes later, the tail was removed from the physiological saline, and 1 mL of Triton X-100 (25% in water) was added. The absorbance at 546 nm was measured, and the amount of bleeding was determined from a calibration curve. Suplatast tosilate (IPD, 100 mg/kg), the compound of the present invention, and a control drug, warfarin (10 mg/kg) were dissolved in distilled water and orally administered in a single dose one hour before amputating the tail, or orally administered for 7 consecutive days before amputating the tail. Distilled water was administered to the control.

Data set [3] has as its system thrombus formation in the arteria testicularis. In words: Thrombus formation inhibitory action (FeCl3-induced thrombus, Test Example 1). The class given is in vivo. Conditions: male ICR mice; for large thrombus formation time: control about 14 minutes. The procedure:
Male ICR mice (ten weeks old) were used. Rhodamine 6G (platelet fluorescence-labeling agent) was administered to the tail vein under anesthesia. With the abdomen open, the arteria testicularis was subjected to FeCl3 treatment to induce thrombus formation. Thrombus formation was observed by a real time color three-dimensional observation device, and the thrombus formation time was measured. Suplatast tosilate (IPD), the compound of the present invention, was dissolved in water and orally administered in a single dose (100 mg/kg) 30 minutes before the FeCl3 treatment or for 7 consecutive days (100 mg/kg, 30 mg/kg, 10 mg/kg) before the FeCl3 treatment. In addition, as a control drug, tirofiban (0.3 μmol/kg) was intravenously administered.

As to `CCOCC(O)COc1ccc(NC(=O)CC[S+](C)C)cc1.Cc1ccc(S(=O)(=O)[O-])cc1` (racemic) [IPD, (±)-[2-[4-(3-ethoxy-2-hydroxypropoxy)phenylcarbamoyl]ethyl]dimethylsulfonium p-toluenesulfonate], the thrombus formation time in data set [1] (IPD alone 10 mg/kg orally for 7 days) came to 36 ± 11 min. The amount of bleeding entry in data set [2] (mouse, in vivo, po, 100 mg/kg) was “did not have a significant effect on the amount of bleeding”. In data set [3] (100 mg/kg orally, single dose 30 minutes before FeCl3 treatment), the “large thrombus formation time” value amounted to 45 min. Further, the “large thrombus formation inhibitory action” value in data set [3] (oral administration for 7 consecutive days (100, 30, 10 mg/kg) vs single dose) is given as “clearly enhanced”.
As to `O=C1CCc2cc(OCCCCc3nnnn3C3CCCCC3)ccc2N1` [cilostazol], the thrombus formation time in data set [1] (cilostazol alone, oral single dose (10, 30, 100 mg/kg tested; dose of this value not stated)) amounted to 25 ± 5 min.
Take `CCCCS(=O)(=O)N[C@@H](Cc1ccc(OCCCCC2CCNCC2)cc1)C(=O)O` [tirofiban]: in data set [3] (0.3 μmol/kg intravenously, after FeCl3 stimulation), the “large thrombus formation time” value worked out at 60 min.
As to `CC(=O)CC(c1ccccc1)c1c(O)c2ccccc2oc1=O` (centres unmarked) [warfarin], the amount of bleeding entry in data set [2] (male ICR mice, 10 mg/kg orally for 7 consecutive days before amputating the tail) is listed as “notable effect of increasing the amount of bleeding”; in data set [2] (male ICR mice, 10 mg/kg orally, single dose one hour before amputating the tail), “notable effect of increasing the amount of bleeding”.
